The results in this text go back to article PMC11955804, “Histidine-rich enantiomeric peptide coacervates enhance antigen sequestration and presentation to T cells” (Chemical Science, 2025).

Series [1] in a line: Optical microscopy of coacervate formation (LLPS). It is filed as physicochemical. Conditions: optical microscopy, 1× PBS; across multiple synthesis batches. From the text: NaCl) was used to study ionic strength effects. The absorbance was further converted to turbidity using methods previously described 1 and data was plotted as relative turbidity.
Optical microscopy and dynamic light scattering (DLS)
Droplets were visualized in 1×PBS using NCI Leica DMC4500 microscope in reflection mode with differential interference contrast. Images were captured with a DMC4500 camera under the control of Leica LAS X software (version 3.4.2). […]

In the next series the test system is HEK293T cells. In words: eGFP plasmid DNA transfection. The settings on record: coacervates loaded with eGFP DNA plasmid 2.5 μg/mL; qualitative microscopy after 96 h. It is filed as cell-based. On the procedure:
findings were not OVA-specific.
Reserve University) 14,15.
Cytotoxicity and transfection assays
Untreated cells or ethanol treated cells served as controls. Cytotoxicity of all inhibitors was evaluated similarly. For transfection studies, […]
Biosystems, Catalog number: 4060; 2.5 μg/mL). Cells treated with the naked plasmid or […]
complexed with lipofectamine 2000 (3.2 µL) served as controls. GFP expression was assessed qualitatively after 96 h using a Lionheart FX automated microscope (BioTek Instruments, Inc.).
We employed TrueCut Cas9 protein for the knockout of CD55 gene using CRISPR technology, aided with chiral (GHGXY)4 peptide coacervates. The transfection of the Cas9 RNPs (protein + gRNA) was done according to manufacturer’s protocol (Invitrogen). Briefly, A549 cells were cultured in complete DMEM media (supplemented with 10% FBS and 5% Pen Strep) in T-75 flask till full confluency. Cells were then plated at a concentration of 2×10^4 cells/mL in 24 well […]
plates in DMEM media for 24 h. […]
confluent. For positive control, we mixed the TrueCutTM Cas9 protein/sgRNA in Opti-MEM media (17.8 μL) at a concentration of 12.50 μg (75 pmol; Stock 0.5 mg/mL) and 2.4 μg (75 pmol; Stock 1 nmol) for protein and sgRNA respectively, containing 50 μL LipofectamineTM Cas 9 PlusTM reagent (Total Volume: 100 μL) in a RNAse -free microcentrifuge tube. […]

A further series has as its system DCs. In words: DQ-OVA delivery to lysosomes (fluorescence microscopy). Type of series: cell-based, mouse. Conditions: DQ-OVA loaded coacervates, 2.5 μg/mL DQ-OVA, fluorescence microscopy. On the procedure:
page 13: Flow cytometry The transfected A549 cells were washed with FACS wash buffer (FWB; 1× PBS with 10% […] Cells were washed again with FWB and then resuspended in 100 µl of PBS with eBioscience™ Fixable Viability Dye eFluor™ 506 antibody. The staining was quenched with FWB following a 20 min incubation. The cells were centrifuged, washed 2× times with FWB, and resuspended in 100 µl FWB with CD55 (DAF) Antibody (anti-human; miltenyibiotec Cat#130-126-382). After 20 min, staining was quenched, cells washed twice and resuspended in 200 µl FWB for acquisition. Single-stained cells stained with eFluor™ 506, CD55 (DAF) Antibody, were used as compensation controls. Samples were acquired using an Agilent NovoCyte 3000 flow cytometer. Data were analyzed with FlowJo version 10. […] was quantified as the percentage CD55+ cells, considering untreated cells as the negative control and Lipofectamine treated ones as the positive control. Antigen delivery to lysosomes and inhibitor effects DC 2.4 cells were cultured in RPMI-1640 (Catalog number: 11875093) medium supplemented with 10% FBS, 100 U/mL penicillin, 100 μg/mL streptomycin, and 1 mM sodium pyruvate. Cells were plated in 8-well chamber slides (5000 cells in 200 μL of media) and incubated for 24 h prior to addition of DQ-OVA loaded coacervates for 2 h, 6 h, or 24 h (final DQ-OVA concentration was 2.5 μg/mL). Cells treated with PBS or soluble OVA served as controls. Cells were then washed and fixed using 4% Paraformaldehyde (PFA) for 15 min at RT and permeabilized with 0.1% Triton X-100 for 5 min prior to nuclear staining with Hoechst stain (Catalog number: 62249, Thermo Fischer Scientific; 10 μg/mL). Cells were imaged (60×) on Lionheart FX automated microscope (BioTek Instruments, Inc.) with controlled exposure S13 page 14: parameters across two channels: eGFP and DAPI.

As for (GHGVY)4 [GV 20], in series [1], the coacervate formation entry is “Consistent coacervate formation”. For the same substance, the “eGFP expression after plasmid delivery” value with HEK293T cells is “Poor eGFP expression”. Moreover, the “lysosomal processing of DQ-OVA delivered by coacervates” value with DCs is listed as “Green fluorescent puncta were detected”.

(GHGLY)4 [GL 20]: the coacervate formation entry in series [1] was “Consistent coacervate formation”. Also, the “eGFP expression after plasmid delivery” value with HEK293T cells was “robust eGFP expression”. Also, the “lysosomal processing of DQ-OVA delivered by coacervates” value with DCs was “Green fluorescent puncta were detected”.
